According to US8653092B2, “Tetrahydro-pyrido-pyrimidine derivatives” (Novartis AG, priority 2010, dated 2014):
Read-outs that look alike come from different tables or passages of the source.

How the values were obtained:
[1] = biological target: PI3K alpha (Homo sapiens (Human), UniProt P42336); assay: Enzymatic PI3K alpha isoform inhibition (lipid kinase, Kinase-Glo luminescence); type: biochemical
[2] = biological target: PI3K delta (Homo sapiens (Human), UniProt O00329); assay: Enzymatic PI3K delta isoform inhibition (lipid kinase, Kinase-Glo luminescence); type: biochemical; settings: enzymatic assay
PI3K delta, sequence (O00329 other isoform, or with tags, fused parts or gaps linker GGGGGG): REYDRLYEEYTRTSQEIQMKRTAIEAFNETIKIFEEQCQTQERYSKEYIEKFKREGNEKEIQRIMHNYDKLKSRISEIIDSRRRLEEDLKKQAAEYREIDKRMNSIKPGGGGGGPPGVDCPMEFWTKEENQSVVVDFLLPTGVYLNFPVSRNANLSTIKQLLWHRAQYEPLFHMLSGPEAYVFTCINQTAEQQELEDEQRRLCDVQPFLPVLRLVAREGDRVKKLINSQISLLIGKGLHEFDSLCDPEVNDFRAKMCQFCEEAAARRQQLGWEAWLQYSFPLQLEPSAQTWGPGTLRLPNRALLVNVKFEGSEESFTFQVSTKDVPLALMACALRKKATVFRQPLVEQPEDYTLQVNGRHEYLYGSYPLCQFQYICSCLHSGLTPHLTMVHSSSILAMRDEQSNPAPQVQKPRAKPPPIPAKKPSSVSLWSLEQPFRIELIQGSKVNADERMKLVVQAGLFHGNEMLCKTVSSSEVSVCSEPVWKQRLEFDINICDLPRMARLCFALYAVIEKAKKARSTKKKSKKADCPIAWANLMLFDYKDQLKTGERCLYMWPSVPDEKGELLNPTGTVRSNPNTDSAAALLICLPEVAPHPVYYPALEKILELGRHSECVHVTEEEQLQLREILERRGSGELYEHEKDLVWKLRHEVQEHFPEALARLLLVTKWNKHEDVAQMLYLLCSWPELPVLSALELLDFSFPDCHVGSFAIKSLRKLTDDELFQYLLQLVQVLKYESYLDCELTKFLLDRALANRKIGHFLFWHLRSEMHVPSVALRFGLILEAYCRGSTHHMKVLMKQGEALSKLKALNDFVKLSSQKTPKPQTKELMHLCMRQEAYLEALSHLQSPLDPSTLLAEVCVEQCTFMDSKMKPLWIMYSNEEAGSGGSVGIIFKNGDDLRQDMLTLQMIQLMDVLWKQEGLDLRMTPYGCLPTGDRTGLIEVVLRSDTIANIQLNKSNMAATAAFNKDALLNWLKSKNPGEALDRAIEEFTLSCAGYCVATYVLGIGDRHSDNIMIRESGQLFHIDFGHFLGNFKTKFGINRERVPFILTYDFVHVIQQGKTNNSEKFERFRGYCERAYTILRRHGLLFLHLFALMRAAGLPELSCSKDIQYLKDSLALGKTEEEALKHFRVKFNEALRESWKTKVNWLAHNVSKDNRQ

[3] = biological target: human phosphoinositide-3 kinase (PI3K) delta (Homo sapiens (Human), UniProt O00329); assay: PI3K-mediated Akt 1/2 (S473) phosphorylation in Rat-1 cells (AlphaScreen SureFire); type: cell-based; settings: Rat-1 cells overexpressing myristoylated human PI3K delta, p-Akt (Ser473); read-out: Cell PI3Kδ/ IC50 [umol l − 1]
human phosphoinositide-3 kinase (PI3K) delta, sequence (O00329 whole entry): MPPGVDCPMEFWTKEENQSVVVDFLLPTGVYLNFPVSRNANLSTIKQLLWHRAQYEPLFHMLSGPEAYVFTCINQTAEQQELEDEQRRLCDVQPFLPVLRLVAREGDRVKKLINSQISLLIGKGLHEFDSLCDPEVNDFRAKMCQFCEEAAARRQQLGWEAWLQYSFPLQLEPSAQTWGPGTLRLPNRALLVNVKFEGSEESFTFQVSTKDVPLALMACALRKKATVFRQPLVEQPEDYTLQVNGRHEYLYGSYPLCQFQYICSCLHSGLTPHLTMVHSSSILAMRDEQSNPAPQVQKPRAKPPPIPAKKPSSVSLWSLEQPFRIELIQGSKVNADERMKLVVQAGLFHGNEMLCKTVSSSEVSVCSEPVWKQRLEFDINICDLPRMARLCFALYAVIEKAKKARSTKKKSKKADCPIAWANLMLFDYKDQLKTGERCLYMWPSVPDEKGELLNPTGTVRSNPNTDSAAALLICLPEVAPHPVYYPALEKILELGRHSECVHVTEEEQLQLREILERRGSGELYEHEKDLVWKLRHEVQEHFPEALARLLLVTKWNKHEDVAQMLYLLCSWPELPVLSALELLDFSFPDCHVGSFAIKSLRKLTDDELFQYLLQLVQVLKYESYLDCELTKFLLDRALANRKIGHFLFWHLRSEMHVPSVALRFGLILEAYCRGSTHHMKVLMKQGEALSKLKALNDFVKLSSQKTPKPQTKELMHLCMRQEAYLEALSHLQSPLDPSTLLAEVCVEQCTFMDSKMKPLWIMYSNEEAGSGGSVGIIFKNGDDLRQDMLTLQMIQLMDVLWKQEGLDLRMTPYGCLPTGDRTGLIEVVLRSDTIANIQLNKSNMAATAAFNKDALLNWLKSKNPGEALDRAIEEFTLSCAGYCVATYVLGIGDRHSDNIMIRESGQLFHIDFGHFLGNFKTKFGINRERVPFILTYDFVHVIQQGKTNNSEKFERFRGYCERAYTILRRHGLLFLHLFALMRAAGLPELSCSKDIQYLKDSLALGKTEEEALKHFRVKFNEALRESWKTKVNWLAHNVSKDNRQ
human phosphoinositide-3 kinase (PI3K) delta, sequence (Q63787 whole entry partner): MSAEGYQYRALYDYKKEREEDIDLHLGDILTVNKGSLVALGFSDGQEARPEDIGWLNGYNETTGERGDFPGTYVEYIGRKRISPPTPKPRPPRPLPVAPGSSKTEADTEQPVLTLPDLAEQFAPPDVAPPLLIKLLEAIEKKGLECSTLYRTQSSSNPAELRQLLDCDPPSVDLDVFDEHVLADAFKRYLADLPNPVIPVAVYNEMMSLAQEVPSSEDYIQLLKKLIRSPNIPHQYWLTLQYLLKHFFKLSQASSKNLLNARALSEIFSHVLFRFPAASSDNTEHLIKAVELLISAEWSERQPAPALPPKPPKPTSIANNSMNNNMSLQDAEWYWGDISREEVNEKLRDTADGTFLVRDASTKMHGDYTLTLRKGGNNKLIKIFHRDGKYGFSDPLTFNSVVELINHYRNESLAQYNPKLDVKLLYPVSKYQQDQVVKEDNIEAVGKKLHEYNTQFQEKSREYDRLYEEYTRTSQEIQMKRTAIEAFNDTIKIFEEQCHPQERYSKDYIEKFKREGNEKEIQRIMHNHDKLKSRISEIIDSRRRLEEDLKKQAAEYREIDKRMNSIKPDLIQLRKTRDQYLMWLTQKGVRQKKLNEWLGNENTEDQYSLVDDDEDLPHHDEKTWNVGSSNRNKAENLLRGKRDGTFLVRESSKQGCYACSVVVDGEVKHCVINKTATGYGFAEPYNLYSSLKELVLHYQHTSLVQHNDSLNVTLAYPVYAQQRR
Experimental: Rat-1 cells stably overexpressing a myristoylated form of the catalytic subunit of human phosphoinositide-3 kinase (PI3K) alpha, beta or delta were plated in 384-well plates at a density of 7500 (PI3K alpha), 6200 (PI3K beta), or 4000 (PI3K delta) cells in 30 ul complete growth medium (Dulbecco's modified Eagle's medium (DMEM high glucose) supplemented with 10% (v/v) fetal bovine serum, 1% (v/v) MEM non essential amino acids, 10 mM HEPES, 2 mM L-glutamine, 10 μg/mL puromycin and 1% (v/v) Penicillin/Streptomycin) and were incubated at […]/5% CO2/95% humidity for 24 h. Compounds were diluted in 384-well compound plates to obtain 8-point serial dilutions for 40 test compounds in 90% DMSO, as well as 4 reference compounds plus 16 high controls and 16 low (inhibited) controls. Predilution plates were prepared by dispensing pipetting 250 nl of compound solutions into 384-well polypropylen plates using a Hummingwell nanoliter dispensor. Compounds were prediluted by the addition of 49.75 ul complete growth medium. 10 ul of prediluted compound solution were transferred to the cell plate using a 384-well pipettor, resulting in a final DMSO concentration of 0.11%. Cells were incubated for 1 h at […]/5% CO2/95% humidity. The supernatant was removed, the cells were lysed in 20 ul of lysis buffer for AlphaScreen® SureFire® detection.
For detection of p-AKT (Ser473), the SureFire® p-Akt 1/2 (Ser473) Assay Kit (PerkinElmer, U.S.A) was used. 5 ul of cell lysate was transferred to 384-well low volume Proxiplates for detection using a 384-well pipettor. Addition of AlphaScreen® SureFire® reagents was done according to the manufacturer's protocol. First, 5 ul of reaction buffer plus activation buffer mix containing AlphaScreen® acceptor beads was added, the plate was sealed, and incubated on a plate shaker for 2 hours at room temperature. Second, 2 ul of dilution buffer containing AlphaScreen® donor beads was added, and the plate was incubated on plate shaker as above for a further 2 hours. The plate was read on an AlphaScreen® compatible plate reader, using standard AlphaScreen® settings.

[4] = system: murine B cells; assay: Murine B cell activation: CD86 upregulation after anti-IgM stimulation; type: cell-based, mouse; settings: read-out: mCD86/IC50 CD86 [nmol l − 1]
Experimental: Spleens from Balb/c mice were collected, splenocytes were isolated and washed twice with RPMI containing 10% foetal bovine serum (FBS), 10 mM HEPES, 100 Units/mL penicilline/streptomycine. RPMI supplemented in this way is subsequently referred to as medium. The cells were adjusted to 2.5×10^6 cells/mL in medium and 200 μl cell suspension (5×10^6 cells) were added to the appropriate wells of 96 well plates.
Then the cells were stimulated by adding 50 μl anti-IgM mAb in medium (final concentration: 30 μg/mL). After incubation for 24 hours at 37° C., the cells were stained with the following antibody cocktails: anti-mouse CD86-FITC, anti-mouse CD69-PerCP-Cy5.5, anti-mouse CD19-PerCP for the assessment of B cells, and anti-mouse CD3-FITC, anti-mouse CD69-PE for the assessment of T cells (2 μl of each antibody/well). After one hour at room temperature (RT) in the dark the cells were transferred to 96 Deepwell plates. The cells were washed once with 1 mL PBS containing 2% FBS and after re-suspension in 200 μl the samples were analyzed on a FACS Calibur flow cytometer. Lymphocytes were gated in the FSC/SSC dot plot according to size and granularity and further analyzed for expression of CD19, CD3 and activation markers (CD86, CD69). Data were calculated from dot blots as percentage of cells positively stained for activation markers within the CD19+ or CD3+ population using BD CellQest Software.
For assessing the inhibitory property of compounds, compounds were first dissolved and diluted in DMSO followed by a 1:50 dilution in medium. Splenocytes from Balb/c mice were isolated, re-suspended and transfered to 96 well plates as described above (200 μl/well). The diluted compounds or solvent were added to the plates (25 μl) and incubated at 37° C. for 1 hour. Then the cultures were stimulated with 25 μl anti-IgM mAb/well (final concentration […]) for 24 hours at 37° C. and stained with anti-mouse CD86-FITC and anti-mouse CD19-PerCP (2 μl of each antibody/well). CD86 expression on CD19 positive B cells was quantified by flow cytometry as described above.

[5] = system: antibody production to sheep red blood cells (SRBC); assay: Antibody production to sheep red blood cells (SRBC), plaque forming assay; type: in vivo, rat; settings: OFA rats, 10 mg/kg bid orally d0-d3, spleens on d4
Experimental: In brief, OFA rats were injected i.v. with sheep erythrocytes on d0 and treated orally on four consecutive days (d0 to d3) with the compounds under investigation. Spleen cell suspensions were prepared on d4 and lymphocytes were plated onto soft agar in presence of indicator cells (SRBC) and complement. Lysis of the indicator cells due to secretion of SRBC-specific antibody (predominantly of the IgM subclass) and presence of complement yielded plaques. The number of plaques per plate were counted and expressed as number of plaques per spleen.
Immunization: Groups of five female OFA rats were immunized on day 0 with 2×10^8/ml SRBC (obtained from Laboratory Animal Services LAS, Novartis Pharma AG) in a volume of 0.5 ml per rat by i.v. injection. […]
On day 4, animals were euthanized with CO2 Spleens were removed, weighed, and deposited in plastic tubes containing 10 ml of cold (4° C.) Hank's balanced salt solution (HBSS; Gibco, pH 7.3, containing 1 mg Phenolred/100 ml) for each rat spleen. […] Lymphocyte numbers per spleen were determined by automated cell counter and spleen cell suspensions were adjusted to a cell concentration of 30×10^6/ml. […]
In addition, one ml of 0.7% agarose was prepared in plastic tubes and kept at 48° C. in a water bath. […] Plaques were counted with a microscope. […]

[6] = Balb/c mouse splenocytes, anti-IgM 24 h, CD86 on CD19+ B cells

PI3K alpha, sequence (P42336 other isoform, or with tags, fused parts or gaps): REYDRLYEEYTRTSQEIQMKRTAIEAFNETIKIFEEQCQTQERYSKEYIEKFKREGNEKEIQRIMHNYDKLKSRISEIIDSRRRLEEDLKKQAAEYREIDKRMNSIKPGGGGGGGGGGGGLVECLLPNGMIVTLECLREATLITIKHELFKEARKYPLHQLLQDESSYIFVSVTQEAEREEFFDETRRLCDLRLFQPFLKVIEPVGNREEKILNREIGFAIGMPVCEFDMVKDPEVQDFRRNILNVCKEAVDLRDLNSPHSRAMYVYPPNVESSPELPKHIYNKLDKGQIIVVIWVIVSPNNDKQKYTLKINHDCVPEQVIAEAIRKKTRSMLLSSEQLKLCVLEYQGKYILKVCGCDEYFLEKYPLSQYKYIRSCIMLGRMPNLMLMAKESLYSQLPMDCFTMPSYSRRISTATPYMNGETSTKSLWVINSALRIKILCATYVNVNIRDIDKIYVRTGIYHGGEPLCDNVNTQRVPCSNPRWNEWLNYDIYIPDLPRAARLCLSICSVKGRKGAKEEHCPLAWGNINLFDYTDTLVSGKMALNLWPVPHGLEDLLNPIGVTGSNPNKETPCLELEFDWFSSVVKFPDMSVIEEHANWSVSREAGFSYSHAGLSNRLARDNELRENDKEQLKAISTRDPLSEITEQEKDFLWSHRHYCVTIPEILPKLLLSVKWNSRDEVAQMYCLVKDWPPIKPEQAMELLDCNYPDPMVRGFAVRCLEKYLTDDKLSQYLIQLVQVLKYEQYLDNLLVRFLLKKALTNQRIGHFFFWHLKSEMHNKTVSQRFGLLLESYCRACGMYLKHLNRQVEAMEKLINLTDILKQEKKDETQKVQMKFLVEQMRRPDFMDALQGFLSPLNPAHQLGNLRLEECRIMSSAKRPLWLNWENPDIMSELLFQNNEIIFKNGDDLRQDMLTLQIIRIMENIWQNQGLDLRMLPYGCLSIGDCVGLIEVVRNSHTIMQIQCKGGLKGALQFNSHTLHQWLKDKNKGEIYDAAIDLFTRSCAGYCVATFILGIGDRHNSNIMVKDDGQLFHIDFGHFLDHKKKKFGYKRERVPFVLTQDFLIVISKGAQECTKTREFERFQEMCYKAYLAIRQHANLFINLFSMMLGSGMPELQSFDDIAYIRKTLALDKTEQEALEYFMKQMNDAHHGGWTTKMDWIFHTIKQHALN

SMILES	IC50 ([1]; enzymatic assay)	IC50 [2]	IC50 [3]	IC50 [4, 6]	IC50 [1]	IC50 ([4]; Mus musculus, 24 h)	Plaques/spleen [5]
COc1ncc(N2CCc3ncnc(O[C@H]4CCN(C(=O)c5cn(C)cn5)C4)c3C2)cc1C [Example 20, {(S)-3-[6-(6-Methoxy-5-methyl-pyridin-3-yl)-5,6,7,8-tetrahydro-pyrido[4,3-d]pyrimidin-4-yloxy]-pyrrolidin-1-yl}-(1-methyl-1H-imidazol-4-yl)-methanone]	1840 nM	48 nM	254 nM	120 nM			
COc1ncc(N2CCc3ncnc(O[C@H]4CCN(c5ccccn5)C4)c3C2)cc1C(F)(F)F [Example 65, 6-(6-Methoxy-5-trifluoromethyl-pyridin-3-yl)-4-((S)-1-pyridin-2-yl-pyrrolidin-3-yloxy)-5,6,7,8-tetrahydro-pyrido[4,3-d]pyrimidine]	738 nM	23 nM	191 nM	570 nM			
COc1cc(N2CCc3ncnc(O[C@H]4CCN(C(=O)C5CCOCC5)C4)c3C2)cnc1OC [Example 5, {(S)-3-[6-(5,6-Dimethoxy-pyridin-3-yl)-5,6,7,8-tetrahydro-pyrido[4,3-d]pyrimidin-4-yloxy]-pyrrolidin-1-yl}-(tetrahydro-pyran-4-yl)-methanone]	749 nM	20 nM	455 nM	125 nM			
CCC(=O)N1CC[C@H](Nc2ncnc3c2CN(c2cnc(OC)c(C)c2)CC3)C1 [Example 81, 1-{(S)-3-[6-(6-Methoxy-5-methyl-pyridin-3-yl)-5,6,7,8-tetrahydro-pyrido[4,3-d]pyrimidin-4-ylamino]-pyrrolidin-1-yl}-propan-1-one]	651 nM	20 nM	246 nM	86.5 nM			
COc1ncc(N2CCc3ncnc(N[C@H]4CCN(C(=O)C5CCOC(C)(C)C5)C4)c3C2)cc1C(F)(F)F (stereo partly drawn) [Example 71, (2,2-Dimethyl-tetrahydro-pyran-4-yl)-{(S)-3-[6-(6-methoxy-5-trifluoromethyl-pyridin-3-yl)-5,6,7,8-tetrahydro-pyrido[4,3-d]pyrimidin-4-ylamino]-pyrrolidin-1-yl}-methanone]		3 nM	35 nM	24.7 nM	57 nM		
COc1ncc(N2CCc3ncnc(N[C@H]4CCN(C(=O)C5CCOCC5)C4)c3C2)cc1C(F)(F)F [Example 68, {(S)-3-[6-(6-Methoxy-5-trifluoromethyl-pyridin-3-yl)-5,6,7,8-tetrahydro-pyrido[4,3-d]pyrimidin-4-ylamino]-pyrrolidin-1-yl}-(tetrahydro-pyran-4-yl)-methanone]	43 nM	7 nM	53 nM	14.9 nM			
COc1ncc(N2CCc3ncnc(O[C@H]4CCN(C(=O)c5oc(C)nc5C)C4)c3C2)cc1C#N [Example 28, 5-{4-[(S)-1-(2,4-Dimethyl-oxazole-5-carbonyl)-pyrrolidin-3-yloxy]-7,8-dihydro-5H-pyrido[4,3-d]pyrimidin-6-yl}-2-methoxy-nicotinonitrile]	1210 nM	4 nM	268 nM	71.6 nM			
CCC(=O)N1CC[C@H](Nc2ncnc3c2CN(c2cnc(OC)c(C(F)(F)F)c2)CC3)C1 [Example 67, 1-{(S)-3-[6-(6-Methoxy-5-trifluoromethyl-pyridin-3-yl)-5,6,7,8-tetrahydro-pyrido[4,3-d]pyrimidin-4-ylamino]-pyrrolidin-1-yl}-propan-1-one]	262 nM					48.3 nM	
COc1ncc(N2CCc3ncnc(N[C@H]4CCN(C(=O)C5CCOCC5)C4)c3C2)cc1Cl [Example 82, {(S)-3-[6-(5-Chloro-6-methoxy-pyridin-3-yl)-5,6,7,8-tetrahydro-pyrido[4,3-d]pyrimidin-4-ylamino]-pyrrolidin-1-yl}-(tetrahydro-pyran-4-yl)-methanone]	66 nM	3 nM	116 nM	46.2 nM			
COc1ncc(N2CCc3ncnc(O[C@H]4CCN(C(=O)C5CCOCC5)C4)c3C2)cc1C [Example 1, {(S)-3-[6-(6-Methoxy-5-methyl-pyridin-3-yl)-5,6,7,8-tetrahydro-pyrido[4,3-d]pyrimidin-4-yloxy]-pyrrolidin-1-yl}-(tetrahydro-pyran-4-yl)-methanone]			153 nM	94.9 nM			12608 ± 4986
